Assays:
Oryctolagus cuniculus [1] = organism: Oryctolagus cuniculus; test: Compound was tested for pyrogenicity in the rabbit; non pyrogenic at […]; format: functional, organism-based
Mus musculus [2] = test: Compound was tested for protective activity in mice infected with Klebsiella pneumoniae; compound is pyrogenic at 1 mg/kg; format: functional, organism-based; parameters: dose 1 mg/kg
Limulus [3] = test: Compound was evaluated by Limulus amoebocyte lysate test; positive at 10 ug/mL; format: functional, organism-based
Cavia porcellus [4] = test: Compound was tested for delayed hypersensitivity in guinea pig after administration in a water in oil emulsion; non pyrogenic at 1 mg/kg; format: functional, organism-based; parameters: dose 1 mg/kg
Mus musculus [5] = test: Compound was tested for antibody titer in mice after injection with antigen in saline;compound is pyrogenic at 1 mg/kg; format: functional, organism-based; parameters: dose 1 mg/kg
Mus musculus [6] = test: Compound was tested for [3H]- -thymidine uptake in mouse spleen cell cultures; compound is pyrogenic at 1 mg/kg; format: functional, organism-based; parameters: dose 1 mg/kg
Oryctolagus cuniculus [7] = test: Compound was tested for pyrogenicity in the rabbit; non pyrogenic at 1 mg/kg; format: functional, organism-based; parameters: dose 1 mg/kg
Limulus [8] = test: Compound was evaluated by Limulus amoebocyte lysate test; negative at 100 ug/mL; format: functional, organism-based
Mus musculus [9] = test: Compound was tested for antibody titer in mice after injection with antigen in saline; compound is pyrogenic at 1 mg/kg; format: functional, organism-based; parameters: dose 1 mg/kg
Cavia porcellus [10] = test: Compound was tested for delayed hypersensitivity in guinea pig after administration in a water in oil emulsion; compound is non pyrogenic at 1 mg/kg; format: functional, organism-based; parameters: dose 1 mg/kg
Mus musculus [11] = test: Compound was tested for protective activity in mice infected with Klebsiella pneumoniae; non pyrogenic at 1 mg/kg; format: functional, organism-based; parameters: dose 1 mg/kg
Oryctolagus cuniculus [12] = organism: Oryctolagus cuniculus; test: Compound was tested for pyrogenicity in the rabbit; Delayed hypersensitivity; format: functional, organism-based
Cavia porcellus [13] = test: Compound was tested for delayed hypersensitivity in guinea pig after administration in a water in oil emulsion; compound is pyrogenic at 1 mg/kg; format: functional, organism-based; parameters: dose 1 mg/kg
Limulus [14] = test: Compound was evaluated by Limulus amoebocyte lysate test; positive at 100 ug/mL; format: functional
Mus musculus [15] = test: Compound was tested for protective activity in mice infected with Klebsiella pneumoniae; compound is non pyrogenic at 1 mg/kg; format: functional, organism-based; parameters: dose 1 mg/kg
Oryctolagus cuniculus [16] = organism: Oryctolagus cuniculus; test: Compound was tested for pyrogenicity in the rabbit; pyrogenic at 100 ug/mL.; format: functional, organism-based
Mus musculus [17] = test: Compound was tested for [3H]thymidine uptake in mouse spleen cell cultures; compound is pyrogenic at 1 mg/kg; format: functional, organism-based; parameters: dose 1 mg/kg
Limulus [18] = test: Compound was evaluated by Limulus amoebocyte lysate test; Positive at 100 ug/mL; format: functional, organism-based

`CC(=O)N[C@H]1C(OC(C)C(=O)NC(C)C(=O)NC(CCC(N)=O)C(=O)O)[C@H](O)C(CO)O[C@H]1O` (stereo partly specified) was tested, and the Pyrogenic effect (Oryctolagus cuniculus [1]) was “Not toxic”, the Anti-infectious effect (Mus musculus [2]) was “pyrogenic at 1 mg/kg” and the LAL test (Limulus [3]) was “positive at 10 ug/mL”. For the same compound, the Adjuvant effect (Cavia porcellus [4]) was “Not toxic”, the Adjuvant effect (Mus musculus [5]) was “pyrogenic at 1 mg/kg” and the Mitogenic effect (Mus musculus [6]) was “pyrogenic at 1 mg/kg”.
With `CC(=O)N[C@H]1C(OC(C)C(=O)NC(C)C(=O)NC(CCC(=O)O)C(=O)O)[C@H](O)C(CO)O[C@H]1O` (stereo partly specified) the Anti-infectious effect (Mus musculus [2]) was “pyrogenic at 1 mg/kg”, the Pyrogenic effect (Oryctolagus cuniculus [7]) was “Not toxic” and the LAL test (Limulus [8]) was “negative at 100 ug/mL”. The Adjuvant effect (Mus musculus [9]) was “pyrogenic at 1 mg/kg”, the Adjuvant effect (Cavia porcellus [10]) was “Not toxic” and the Mitogenic effect (Mus musculus [6]) was “pyrogenic at 1 mg/kg”.
For `COC(=O)C(CCC(N)=O)NC(=O)C(C)NC(=O)C(C)OC1[C@H](O)C(CO)O[C@@H](O)[C@H]1NC(C)=O` (stereo partly specified), the Anti-infectious effect (Mus musculus [11]) was “Not toxic”, the Pyrogenic effect (Oryctolagus cuniculus [12]) was “Not toxic” and the Adjuvant effect (Mus musculus [9]) was “pyrogenic at 1 mg/kg”. For the same compound, the Adjuvant effect (Cavia porcellus [13]) was “pyrogenic at 1 mg/kg”, the Mitogenic effect (Mus musculus [6]) was “pyrogenic at 1 mg/kg” and the LAL test (Limulus [14]) was “positive at 100 ug/mL”.
With `CC(=O)N[C@H]1[C@@H](O[C@@H](C)C(=O)N[C@@H](C)C(=O)N[C@H](CCC(=O)N[C@@H](CCCCN)C(=O)N[C@H](C)C(=O)O)C(N)=O)[C@H](O)[C@H](CO)O[C@H]1O` the LAL test (Limulus [8]) was “Not toxic”, the Adjuvant effect (Mus musculus [9]) was “pyrogenic at 1 mg/kg” and the Anti-infectious effect (Mus musculus [15]) was “Not toxic”. For the same compound, the Adjuvant effect (Cavia porcellus [13]) was “pyrogenic at 1 mg/kg”, the Pyrogenic effect (Oryctolagus cuniculus [16]) was “pyrogenic at 100 ug/mL” and the Mitogenic effect (Mus musculus [6]) was “pyrogenic at 1 mg/kg”.
`CC(=O)N[C@H]1C(O)O[C@H](CO)[C@@H](O)[C@@H]1O[C@H](C)C(=O)N[C@@H](C)C(=O)N[C@H](CCC(=O)O)C(N)=O` (stereo partly specified) was tested, and the Anti-infectious effect (Mus musculus [2]) was “pyrogenic at 1 mg/kg”, the Adjuvant effect (Mus musculus [9]) was “pyrogenic at 1 mg/kg” and the Adjuvant effect (Cavia porcellus [13]) was “pyrogenic at 1 mg/kg”. The Pyrogenic effect (Oryctolagus cuniculus [16]) was “pyrogenic at 100 ug/mL”, the Mitogenic effect (Mus musculus [6]) was “pyrogenic at 1 mg/kg” and the LAL test (Limulus [14]) was “positive at 100 ug/mL”.
For `COC(=O)CCC(NC(=O)C(C)NC(=O)C(C)OC1[C@H](O)C(CO)O[C@@H](O)[C@H]1NC(C)=O)C(=O)OC` (stereo partly specified), the Pyrogenic effect (Oryctolagus cuniculus [12]) was “Not toxic”, the Anti-infectious effect (Mus musculus [2]) was “pyrogenic at 1 mg/kg” and the Mitogenic effect (Mus musculus [17]) was “pyrogenic at 1 mg/kg”. The Adjuvant effect (Mus musculus [9]) was “pyrogenic at 1 mg/kg”, the Adjuvant effect (Cavia porcellus [13]) was “pyrogenic at 1 mg/kg” and the LAL test (Limulus [18]) was “Positive at 100 ug/mL”.

Source: ChEMBL document CHEMBL1121481, “Synthetic immunostimulants derived from the bacterial cell wall” (J Med Chem, 1980)
